Where “and” joins values, the source holds several entries; their conditions need not be identical. Equal entries are not always repeated.
Columns and labels:
[1] = test system: dextran sodium sulfate-induced inflammatory bowel disease; assay: DSS-induced inflammatory bowel disease, six-group study (Example V); assay type: in vivo, mice
Text: Then, the efficacy of the disclosed agents and method was confirmed in an additional study. […] Injections were made at day 7 post-disease induction by dextran sodium sulfate. All mice were sacrificed at day 10.

[2] = test system: foxp3 expression in activated T cells; assay: foxp3 expression in T cells of splenocytes activated by anti-CD3/CD28 beads with exogenous calcitriol; assay type: cell-based, mouse; conditions: 72 hours
Text: The naive mouse splenocytes can be cultured for 3 days with 1,25 Vitamin D (100 U/ml, Sigma-Aldrich) in the presence of human (h) IL-2 (50 U/ml) in complete RPMI 1640 medium (10% FBS; HyClone). The cells were harvested and stained for the FoxP3 expression with an anti-FoxP3 Ab (FJK-16s; eBioscience) and CCR9 expression.
A supraphysiological concentration of the active vitamin D metabolite, 1,25[OH]2D (calcitriol), may be necessary for calcitriol to induce foxp3 expression during T cell priming. Foxp3 is a protein that is involved in the regulatory pathway in the development and function of regulatory T cells. To determine whether a supraphysiological concentration is necessary, foxp3 expression in T cells during T cell activation in the presence of exogenous calcitriol can be examined. Splenocytes can be activated by anti-CD3/CD28 magnetic beads. In some cultures, 1,25[OH]2D can be added at a low (20 nM) or high (100 nM) concentration. Cells can be cultured for 72 hours and analyzed for foxp3 expression using flow cytometry. Flow cytometry can be performed by harvesting transduced mCYP27B1-positive DCs, washing them in PBS, resuspending them in the FACS buffer, and analyzing them for GFP expression on a flow cytometer. […] The normal range of human calcitriol serum concentration is 16˜56 pg/ml (0.038 nM 0.13 nM). […]

[3] = some patients; cited from earlier work
[4] = injection at day 7 post-DSS, sacrifice day 10

C=C1C(=CC=C2CCC[C@]3(C)[C@@H]2CC[C@@H]3[C@H](C)CCCC(C)(C)O)C[C@@H](O)C[C@@H]1O [calcitriol, (1R,3S)-5-[2-[(1R,3aR,7aS)-1-[(2R)-6-hydroxy-6-methyl-heptan-2-yl]-7a-methyl-2,3,3a, 5,6,7-hexahydro-1H-inden-4-ylidene]ethylidene]-4-methylidene-cyclohexane-1,3-diol]
increase in serum calcium ([1]; calcitriol 200 ng/day/mouse intraperitoneal): more than 30%
colon lesions / mucosal integrity [1, 4]: did improve colon mucosal integrity
hypercalcemia [1, 4]: severe hypercalcemia
body weight loss ([1]; injection at day 7 post-DSS, sacrifice day 10, calcitriol 200 ng/day/mouse intraperitoneal): failed to prevent body weight loss
foxp3 expression in activated T cells ([2]; 20 nM): slightly up regulated
foxp3 expression in activated T cells ([2]; 100 nM): significantly augment
serum calcitriol level tolerated without dose-limiting toxicity (hypercalcemia) [3]: up to 300 pg/ml and ≤ 0.72 nM

Source: patent US12275961B2, “Method for utilizing engineered dendritic cells to induce gut-homing regulatory T cells and treat gut inflammation” (LOMA LINDA UNIVERSITY, priority 2015, dated 2025)
